Test results published in patent publication US11414379B2, “SPAK kinase inhibitors as neuroprotective agents” (United States Government as represented by the Department …, priority 2018, dated 2022).

Assays:
Assay in all cases: Kinase panel (Dundee profiling)
Format in all cases: biochemical
Settings in all cases: read-out: % residual kinase activity
Aurora A = Aurora A (Homo sapiens, UniProt O14965)
Procedure, shortened: (§1)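 Radioisotopic enzymatic activity assay across a panel of 140 recombinant kinases, with test compound at 10 and 1 μM. Values are % residual kinase activity relative to DMSO control, mean±SEM, n=3.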

CHK1 = CHK1 (Homo sapiens, UniProt O14757)
Procedure, shortened: as §1

DYRK1A = DYRK1A (Homo sapiens, UniProt Q13627)
Procedure, shortened: as §1

DYRK2 = DYRK2 (Homo sapiens, UniProt Q92630)
Procedure, shortened: as §1

EPH-A4 = EPH-A4 (Homo sapiens, UniProt P54764)
Procedure, shortened: as §1

EPH-B1 = EPH-B1 (Homo sapiens, UniProt P54762)
Procedure, shortened: as §1

ERK5 = ERK5 (Homo sapiens, UniProt Q13164)
Procedure, shortened: as §1

HIPK1 = HIPK1 (Homo sapiens, UniProt Q86Z02)
Procedure, shortened: as §1

IKKb = IKKb (Homo sapiens, UniProt O14920)
Procedure, shortened: as §1

IRR = IRR (Homo sapiens, UniProt P14616)
Procedure, shortened: as §1

JNK2 = JNK2 (Homo sapiens, UniProt P45984)
Procedure, shortened: as §1

LKB1 = LKB1 (Homo sapiens, UniProt Q15831)
Procedure, shortened: as §1

MAPKAP-K3 = MAPKAP-K3 (Homo sapiens, UniProt Q16644)
Procedure, shortened: as §1

MARK2 = MARK2 (Homo sapiens, UniProt Q7KZI7)
Procedure, shortened: as §1

MELK = MELK (Homo sapiens, UniProt Q14680)
Procedure, shortened: as §1

MKK1 = MKK1 (Homo sapiens, UniProt Q02750)
Procedure, shortened: as §1

MNK1 = MNK1 (Homo sapiens, UniProt Q9BUB5)
Procedure, shortened: as §1

MNK2 = MNK2 (Homo sapiens, UniProt Q9HBH9)
Procedure, shortened: as §1

OSR1 = OSR1 (Homo sapiens, UniProt O95747)
Procedure, shortened: as §1

PAK5 = PAK5 (Homo sapiens, UniProt Q9P286)
Procedure, shortened: as §1

PIM2 = PIM2 (Homo sapiens, UniProt Q9P1W9)
Procedure, shortened: as §1

PKA = PKA (Homo sapiens, UniProt P17612)
Procedure, shortened: as §1

PKBb = PKBb (Homo sapiens, UniProt P31751)
Procedure, shortened: as §1

PKCz = PKCz (Homo sapiens, UniProt Q05513)
Procedure, shortened: as §1

PRAK = PRAK (Homo sapiens, UniProt Q8IW41)
Procedure, shortened: as §1

S6K1 = S6K1 (Homo sapiens, UniProt P23443)
Procedure, shortened: as §1

SIK2 = SIK2 (Homo sapiens, UniProt Q9H0K1)
Procedure, shortened: as §1

SYK = SYK (Homo sapiens, UniProt P43405)
Procedure, shortened: as §1

TBK1 = TBK1 (Homo sapiens, UniProt Q9UHD2)
Procedure, shortened: as §1

TTBK2 = TTBK2 (Homo sapiens, UniProt Q6IQ55)
Procedure, shortened: as §1

VEG-FR = VEG-FR (Homo sapiens, UniProt P17948)
Procedure, shortened: as §1

p38b MAPK = p38b MAPK (Homo sapiens, UniProt Q15759)
Procedure, shortened: as §1

Aurora A, sequence (O14965 whole entry): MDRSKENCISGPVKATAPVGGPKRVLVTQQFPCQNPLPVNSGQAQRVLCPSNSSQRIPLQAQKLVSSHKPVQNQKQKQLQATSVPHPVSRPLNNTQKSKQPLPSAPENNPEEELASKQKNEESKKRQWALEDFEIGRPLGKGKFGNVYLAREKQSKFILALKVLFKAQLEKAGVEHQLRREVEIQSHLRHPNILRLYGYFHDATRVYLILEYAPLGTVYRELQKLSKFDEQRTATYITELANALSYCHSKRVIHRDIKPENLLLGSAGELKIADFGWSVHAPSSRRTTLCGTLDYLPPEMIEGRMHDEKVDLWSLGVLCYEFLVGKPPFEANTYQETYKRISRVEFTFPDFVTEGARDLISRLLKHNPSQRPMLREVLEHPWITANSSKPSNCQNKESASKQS
IRR, sequence (P14616 27-1297, species assumed): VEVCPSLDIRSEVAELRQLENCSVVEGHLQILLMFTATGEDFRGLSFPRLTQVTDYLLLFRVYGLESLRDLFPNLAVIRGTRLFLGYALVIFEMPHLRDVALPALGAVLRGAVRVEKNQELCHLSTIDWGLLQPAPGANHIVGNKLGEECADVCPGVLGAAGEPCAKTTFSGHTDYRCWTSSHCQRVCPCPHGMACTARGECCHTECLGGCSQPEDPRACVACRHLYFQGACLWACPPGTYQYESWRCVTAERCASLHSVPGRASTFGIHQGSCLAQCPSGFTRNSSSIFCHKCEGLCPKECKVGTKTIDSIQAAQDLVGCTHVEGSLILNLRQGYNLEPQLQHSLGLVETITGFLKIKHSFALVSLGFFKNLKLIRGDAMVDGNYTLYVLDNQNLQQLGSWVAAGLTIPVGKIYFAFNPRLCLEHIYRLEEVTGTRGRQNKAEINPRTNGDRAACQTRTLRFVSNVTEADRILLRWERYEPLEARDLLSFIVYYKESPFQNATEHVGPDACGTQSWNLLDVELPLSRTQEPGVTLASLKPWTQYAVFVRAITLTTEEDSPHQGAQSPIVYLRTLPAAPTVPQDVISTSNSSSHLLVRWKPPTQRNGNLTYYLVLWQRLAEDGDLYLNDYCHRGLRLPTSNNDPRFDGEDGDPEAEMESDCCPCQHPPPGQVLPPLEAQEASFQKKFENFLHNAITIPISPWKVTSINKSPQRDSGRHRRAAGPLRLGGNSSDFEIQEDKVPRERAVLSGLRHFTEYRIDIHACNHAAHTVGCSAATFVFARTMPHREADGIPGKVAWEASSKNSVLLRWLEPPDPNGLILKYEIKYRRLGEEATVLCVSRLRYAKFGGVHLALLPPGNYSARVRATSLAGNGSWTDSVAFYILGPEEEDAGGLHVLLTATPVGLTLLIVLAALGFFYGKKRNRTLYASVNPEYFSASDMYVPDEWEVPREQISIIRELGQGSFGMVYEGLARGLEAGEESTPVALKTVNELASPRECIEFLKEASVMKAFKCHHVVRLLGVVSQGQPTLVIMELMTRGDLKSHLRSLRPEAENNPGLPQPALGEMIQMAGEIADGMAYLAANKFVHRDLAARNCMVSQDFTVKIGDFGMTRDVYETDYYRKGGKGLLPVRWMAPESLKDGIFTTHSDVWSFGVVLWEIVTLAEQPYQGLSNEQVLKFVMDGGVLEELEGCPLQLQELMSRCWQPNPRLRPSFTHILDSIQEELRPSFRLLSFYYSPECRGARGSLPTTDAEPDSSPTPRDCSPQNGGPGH
IKKb, sequence (O14920 whole entry, species assumed): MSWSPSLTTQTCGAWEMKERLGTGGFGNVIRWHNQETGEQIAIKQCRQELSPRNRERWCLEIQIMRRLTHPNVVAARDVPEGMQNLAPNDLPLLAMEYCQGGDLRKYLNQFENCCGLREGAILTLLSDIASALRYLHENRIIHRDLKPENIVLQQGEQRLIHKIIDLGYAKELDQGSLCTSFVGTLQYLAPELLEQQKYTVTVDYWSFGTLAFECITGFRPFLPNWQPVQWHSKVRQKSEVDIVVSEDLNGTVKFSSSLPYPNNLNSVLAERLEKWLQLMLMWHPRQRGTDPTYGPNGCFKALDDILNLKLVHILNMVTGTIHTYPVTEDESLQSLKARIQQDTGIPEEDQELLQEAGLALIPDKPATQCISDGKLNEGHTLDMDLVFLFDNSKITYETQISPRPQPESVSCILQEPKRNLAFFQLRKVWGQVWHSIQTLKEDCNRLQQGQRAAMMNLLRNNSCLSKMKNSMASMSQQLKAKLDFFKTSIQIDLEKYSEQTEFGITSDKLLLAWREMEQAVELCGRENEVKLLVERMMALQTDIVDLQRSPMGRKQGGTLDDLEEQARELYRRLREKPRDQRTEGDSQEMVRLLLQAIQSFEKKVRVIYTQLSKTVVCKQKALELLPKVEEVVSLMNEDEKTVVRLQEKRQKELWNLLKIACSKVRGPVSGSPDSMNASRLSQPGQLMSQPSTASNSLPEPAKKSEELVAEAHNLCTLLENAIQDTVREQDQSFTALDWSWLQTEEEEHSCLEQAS
p38b MAPK, sequence (Q15759 whole entry): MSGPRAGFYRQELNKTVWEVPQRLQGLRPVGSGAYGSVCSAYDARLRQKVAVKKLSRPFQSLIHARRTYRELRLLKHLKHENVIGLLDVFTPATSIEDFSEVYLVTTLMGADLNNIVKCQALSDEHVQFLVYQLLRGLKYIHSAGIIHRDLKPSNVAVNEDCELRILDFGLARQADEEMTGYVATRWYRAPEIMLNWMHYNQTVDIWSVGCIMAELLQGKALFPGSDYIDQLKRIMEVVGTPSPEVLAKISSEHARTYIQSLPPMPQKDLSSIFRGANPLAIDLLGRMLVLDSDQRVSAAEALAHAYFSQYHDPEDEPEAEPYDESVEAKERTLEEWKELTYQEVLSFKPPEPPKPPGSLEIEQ
MNK2, sequence (Q9HBH9 whole entry, species assumed): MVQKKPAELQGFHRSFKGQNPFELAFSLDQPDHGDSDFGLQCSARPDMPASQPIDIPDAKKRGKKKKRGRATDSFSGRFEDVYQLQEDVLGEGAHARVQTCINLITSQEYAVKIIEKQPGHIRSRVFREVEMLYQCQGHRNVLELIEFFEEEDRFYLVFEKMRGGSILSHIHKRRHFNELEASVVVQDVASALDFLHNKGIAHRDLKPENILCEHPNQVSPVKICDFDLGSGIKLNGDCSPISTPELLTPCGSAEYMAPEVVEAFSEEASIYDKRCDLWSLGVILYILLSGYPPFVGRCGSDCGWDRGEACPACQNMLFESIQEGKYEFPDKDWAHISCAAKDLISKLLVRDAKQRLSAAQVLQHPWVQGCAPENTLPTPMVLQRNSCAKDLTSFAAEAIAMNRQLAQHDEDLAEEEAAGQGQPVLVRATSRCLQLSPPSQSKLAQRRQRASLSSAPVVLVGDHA
JNK2, sequence (P45984 whole entry, species assumed): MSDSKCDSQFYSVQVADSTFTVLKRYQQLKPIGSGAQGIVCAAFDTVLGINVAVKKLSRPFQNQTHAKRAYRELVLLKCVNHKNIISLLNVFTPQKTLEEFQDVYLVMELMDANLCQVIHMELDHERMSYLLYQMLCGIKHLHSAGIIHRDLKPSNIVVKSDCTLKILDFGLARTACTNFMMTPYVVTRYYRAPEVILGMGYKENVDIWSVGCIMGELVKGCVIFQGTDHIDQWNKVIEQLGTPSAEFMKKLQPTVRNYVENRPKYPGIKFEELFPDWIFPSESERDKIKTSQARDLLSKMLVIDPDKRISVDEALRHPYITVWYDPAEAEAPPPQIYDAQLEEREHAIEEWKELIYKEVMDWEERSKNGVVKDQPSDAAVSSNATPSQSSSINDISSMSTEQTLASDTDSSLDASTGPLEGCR
DYRK2, sequence (Q92630 whole entry, species assumed): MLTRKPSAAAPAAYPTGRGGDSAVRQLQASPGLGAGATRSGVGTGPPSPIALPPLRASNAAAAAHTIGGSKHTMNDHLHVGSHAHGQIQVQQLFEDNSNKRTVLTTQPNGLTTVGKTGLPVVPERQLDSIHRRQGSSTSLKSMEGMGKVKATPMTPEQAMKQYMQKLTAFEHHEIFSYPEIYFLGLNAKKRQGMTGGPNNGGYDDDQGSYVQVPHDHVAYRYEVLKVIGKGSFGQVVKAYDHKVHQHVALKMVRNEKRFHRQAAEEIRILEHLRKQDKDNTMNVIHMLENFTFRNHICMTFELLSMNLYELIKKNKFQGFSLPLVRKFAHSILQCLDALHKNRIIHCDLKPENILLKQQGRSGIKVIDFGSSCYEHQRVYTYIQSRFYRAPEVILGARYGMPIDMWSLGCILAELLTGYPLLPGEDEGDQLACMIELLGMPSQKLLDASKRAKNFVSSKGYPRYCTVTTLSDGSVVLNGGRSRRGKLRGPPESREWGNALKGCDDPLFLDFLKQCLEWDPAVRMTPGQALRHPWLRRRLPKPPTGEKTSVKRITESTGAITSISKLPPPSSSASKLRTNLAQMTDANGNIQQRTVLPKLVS
PKCz, sequence (Q05513 whole entry): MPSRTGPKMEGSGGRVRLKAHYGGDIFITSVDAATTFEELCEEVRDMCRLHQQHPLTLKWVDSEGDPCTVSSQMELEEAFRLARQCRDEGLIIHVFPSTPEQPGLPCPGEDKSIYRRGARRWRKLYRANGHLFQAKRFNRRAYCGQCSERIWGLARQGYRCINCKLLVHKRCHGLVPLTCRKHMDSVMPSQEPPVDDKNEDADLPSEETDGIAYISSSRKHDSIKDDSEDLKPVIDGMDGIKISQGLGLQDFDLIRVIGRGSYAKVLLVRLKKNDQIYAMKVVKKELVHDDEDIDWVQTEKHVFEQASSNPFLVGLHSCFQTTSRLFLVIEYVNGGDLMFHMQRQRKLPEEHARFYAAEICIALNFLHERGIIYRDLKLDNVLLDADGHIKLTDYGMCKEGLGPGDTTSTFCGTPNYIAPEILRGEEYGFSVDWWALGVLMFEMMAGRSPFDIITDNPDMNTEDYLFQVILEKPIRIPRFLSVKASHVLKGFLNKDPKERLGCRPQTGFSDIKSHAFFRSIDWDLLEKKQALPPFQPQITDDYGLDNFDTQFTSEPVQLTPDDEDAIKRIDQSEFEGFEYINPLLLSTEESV

SMILES: Cc1cc(C(C#N)c2ccc(Cl)cc2)c(Cl)cc1NC(=O)c1cc(Cl)ccc1O (stereo not shown) [ZT-1a, 5-chloro-N-(5-chloro-4-((4-chlorophenyl)(cyano)methyl)-2-methylphenyl)-2-hydroxy-benzamide]
- remaining activity at 1 µM (Aurora A; 1 μM): 73 ± 19%
- remaining activity at 10 µM (Aurora A; 10 μM): 65 ± 1%
- remaining activity at 1 µM (CHK1; 1 μM): 111 ± 11%
- remaining activity at 10 µM (CHK1; 10 μM): 109 ± 8%
- remaining activity at 1 µM (DYRK1A; 1 μM): 119 ± 7%
- remaining activity at 10 µM (DYRK1A; 10 μM): 103 ± 1%
- remaining activity at 1 µM (DYRK2; 1 μM): 111 ± 15%
- remaining activity at 10 µM (DYRK2; 10 μM): 97 ± 10%
- remaining activity at 1 µM (EPH-A4; 1 μM): 59 ± 33%
- remaining activity at 10 µM (EPH-A4; 10 μM): 90 ± 11%
- remaining activity at 1 µM (EPH-B1; 1 μM): 77 ± 15%
- remaining activity at 10 µM (EPH-B1; 10 μM): 80 ± 19%
- remaining activity at 1 µM (ERK5; 1 μM): 120 ± 9%
- remaining activity at 10 µM (ERK5; 10 μM): 114 ± 5%
- remaining activity at 1 µM (HIPK1; 1 μM): 98 ± 13%
- remaining activity at 10 µM (HIPK1; 10 μM): 90 ± 4%
- remaining activity at 1 µM (IKKb; 1 μM): 101%
- remaining activity at 10 µM (IKKb; 10 μM): 78 ± 3%
- remaining activity at 1 µM (IRR; 1 μM): 105 ± 5%
- remaining activity at 10 µM (IRR; 10 μM): 95 ± 4%
- remaining activity at 1 µM (JNK2; 1 μM): 102 ± 2%
- remaining activity at 10 µM (JNK2; 10 μM): 147 ± 51%
- remaining activity at 1 µM (LKB1; 1 μM): 107 ± 8%
- remaining activity at 10 µM (LKB1; 10 μM): 115 ± 11%
- remaining activity at 1 µM (MAPKAP-K3; 1 μM): 96 ± 26%
- remaining activity at 10 µM (MAPKAP-K3; 10 μM): 72 ± 8%
- remaining activity at 1 µM (MARK2; 1 μM): 103 ± 8%
- remaining activity at 10 µM (MARK2; 10 μM): 89 ± 15%
- remaining activity at 1 µM (MELK; 1 μM): 130 ± 34%
- remaining activity at 10 µM (MELK; 10 μM): 63 ± 3%
- remaining activity at 1 µM (MKK1; 1 μM): 106 ± 2%
- remaining activity at 10 µM (MKK1; 10 μM): 114 ± 17%
- remaining activity at 1 µM (MNK1; 1 μM): 78 ± 19%
- remaining activity at 10 µM (MNK1; 10 μM): 87 ± 2%
- remaining activity at 1 µM (MNK2; 1 μM): 100 ± 7%
- remaining activity at 10 µM (MNK2; 10 μM): 105 ± 3%
- remaining activity at 1 µM (OSR1; 1 μM): 106 ± 9%
- remaining activity at 10 µM (OSR1; 10 μM): 98 ± 3%
- remaining activity at 1 µM (PAK5; 1 μM): 93 ± 26%
- remaining activity at 10 µM (PAK5; 10 μM): 93 ± 4%
- remaining activity at 1 µM (PIM2; 1 μM): 93 ± 5%
- remaining activity at 10 µM (PIM2; 10 μM): 93 ± 3%
- remaining activity at 1 µM (PKA; 1 μM): 80 ± 11%
- remaining activity at 10 µM (PKA; 10 μM): 50 ± 2%
- remaining activity at 1 µM (PKBb; 1 μM): 76 ± 14%
- remaining activity at 10 µM (PKBb; 10 μM): 51 ± 13%
- remaining activity at 1 µM (PKCz; 1 μM): 80 ± 11%
- remaining activity at 10 µM (PKCz; 10 μM): 122 ± 28%
- remaining activity at 1 µM (PRAK; 1 μM): 78 ± 13%
- remaining activity at 10 µM (PRAK; 10 μM): 41 ± 7%
- remaining activity at 1 µM (S6K1; 1 μM): 119 ± 10%
- remaining activity at 10 µM (S6K1; 10 μM): 81 ± 2%
- remaining activity at 1 µM (SIK2; 1 μM): 105 ± 16%
- remaining activity at 10 µM (SIK2; 10 μM): 76 ± 8%
- remaining activity at 1 µM (SYK; 1 μM): 93 ± 12%
- remaining activity at 10 µM (SYK; 10 μM): 93 ± 1%
- remaining activity at 1 µM (TBK1; 1 μM): 119 ± 10%
- remaining activity at 10 µM (TBK1; 10 μM): 94 ± 3%
- remaining activity at 1 µM (TTBK2; 1 μM): 101 ± 32%
- remaining activity at 10 µM (TTBK2; 10 μM): 98 ± 34%
- remaining activity at 1 µM (VEG-FR; 1 μM): 113 ± 10%
- remaining activity at 10 µM (VEG-FR; 10 μM): 88 ± 28%
- remaining activity at 1 µM (p38b MAPK; 1 μM): 124 ± 1%
- remaining activity at 10 µM (p38b MAPK; 10 μM): 124%
